Test results: US10653651B2, “Kit for treating cancer with low molecular weight components of aurin tricarboxylic acid complex” (Aurin Biotech Inc., priority 2014, dated 2020)

Columns and labels:
Assay type in all cases: cell-based, human
BxPC-3 cells = experiment: DNA laddering (apoptosis) in BxPC-3 cells; details: 10 μM, 1 day, agarose gel
Description: For determination of DNA laddering, which is indicative of DNA disintegration, cells were precipitated by centrifugation, washed, and lysed with […] Tris-HCl, 5 mM EDTA, and 3% Triton-X-100. The lysates were incubated at 37° C. for 1 h and then centrifuged at 12,000g for 10 min. They were treated with phenol/chloroform/isoamylalcohol (25:24:1) and chloroform/isoamylalcohol (24:1) twice each, and precipitated with 0.6 volume isopropyl alcohol and 0.1 volume 3 M sodium actate at −20° C. for 30 min. The precipitates were centrifuged at 12,000 g for 20 min, washed with 70% ethanol and dissolved with TE buffer containing 2 μg/mL bovine RNase. DNAs were electrophoresed in 10 μg/mL ethidium bromide containing 2% w/v agarose gel.

Factor H [1] = experiment: Western blot of Factor H expression in U251 cells; details: 10 μM, 1 day, cell extract
Description: Experiment 2 was designed to determine the effect of ATA, AQA, and AHA on the expression and release of Factor H and VEGF by U251 cells. Cells were grown in DMEM for 24 h at 37° C., after which ATA, AQA, or AHA was added to the medium at a final concentration of 10 μM and incubation carried out for a further 24 h. The medium was drawn off, and the cells washed with PBS. Lysis buffer was then added to the cells. Forty microliters of the cell lysate, or the supernatant media, were loaded onto 12% polyacrylamide gels and separated under non-reducing conditions (70 V, 3-6 h). Following SDS-PAGE, proteins were transferred to a PVDF membrane (Bio-RadTM, CA) at 30 mA for 2 h. The membranes were blocked with 5% milk in PBS-T (80 mM Na2HPO4, 20 mM NaH2PO4, 100 mM NaCl, 0.1% Tween 20, pH 7.4) for 1 h, and incubated overnight at 4° C. with primary antibodies for Factor H (CytotechTM, goat 1/1000) and for VEGF (MilliporeTM, rabbit 1/2000). The membranes were then washed 3 times with PBST. They were then treated with an appropriate horseradish peroxidase (HRP)-conjugated secondary antibody for 3 h at room temperature. The secondary antibodies were anti-rabbit IgG (P0448, DAKOTM, Mississauga, Ontario, CA, 1/2,000) and anti-goat IgG (A[…], MilliporeTM, Billerica, Ma, 1/3,000). […]

Factor H [2] = experiment: Western blot of Factor H expression in A549 cells; details: 10 μM, 1 day, cell extract
Description: Experiment 2 was designed to determine the effect of ATA, AQA, and AHA on the expression and release of Factor H and VEGF by U251 cells. Cells were grown in DMEM for 24 h at 37° C., after which ATA, AQA, or AHA was added to the medium at a final concentration of 10 μM and incubation carried out for a further 24 h. The medium was drawn off, and the cells washed with PBS. Lysis buffer was then added to the cells. Forty microliters of the cell lysate, or the supernatant media, were loaded onto 12% polyacrylamide gels and separated under non-reducing conditions (70 V, 3-6 h). Following SDS-PAGE, proteins were transferred to a PVDF membrane (Bio-Rad™, CA) at 30 mA for 2 h. The membranes were blocked with 5% milk in PBS-T (80 mM Na2HPO4, 20 mM NaH2PO4, 100 mM NaCl, 0.1% Tween 20, pH 7.4) for 1 h, and incubated overnight at 4° C. with primary antibodies for Factor H (Cytotech™, goat 1/1000) and for VEGF (Millipore™, rabbit 1/2000). The membranes were then washed 3 times with PBST. They were then treated with an appropriate horseradish peroxidase (HRP)-conjugated secondary antibody for 3 h at room temperature. The secondary antibodies were anti-rabbit IgG (P0448, DAKO™, Mississauga, Ontario, CA, 1/2,000) and anti-goat IgG (AP106P, Millipore™, Billerica, Ma, 1/3,000). […]

VEGF = experiment: Western blot of VEGF expression and release by A549 cells; details: 10 μM, 1 day; for expression of vascular endothelial growth factor (VEGF) in A549 cells: cell extract; for release of VEGF into the extracellular milieu by A549 cells: supernatant
Description: Experiment 2 was designed to determine the effect of ATA, AQA, and AHA on the expression and release of Factor H and VEGF by U251 cells. Cells were grown in DMEM for 24 h at 37° C., after which ATA, AQA, or AHA was added to the medium at a final concentration of 10 μM and incubation carried out for a further 24 h. The medium was drawn off, and the cells washed with PBS. Lysis buffer was then added to the cells. Forty microliters of the cell lysate, or the supernatant media, were loaded onto 12% polyacrylamide gels and separated under non-reducing conditions (70 V, 3-6 h). Following SDS-PAGE, proteins were transferred to a PVDF membrane (Bio-Rad™, CA) at 30 mA for 2 h. The membranes were blocked with 5% milk in PBS-T (80 mM Na2HPO4, 20 mM NaH2PO4, 100 mM NaCl, 0.1% Tween 20, pH 7.4) for 1 h, and incubated overnight at 4° C. with primary antibodies for Factor H (Cytotech™, goat 1/1000) and for VEGF (Millipore™, rabbit 1/2000). The membranes were then washed 3 times with PBST. They were then treated with an appropriate horseradish peroxidase (HRP)-conjugated secondary antibody for 3 h at room temperature. The secondary antibodies were anti-rabbit IgG (P0448, DAKO™, Mississauga, Ontario, CA, 1/2,000) and anti-goat IgG (AP106P, Millipore™, Billerica, Ma, 1/3,000). The bands were visualized with an enhanced chemiluminescence system and exposure to photographic film (Hyperfilm ECL™, Amersham™ Pharmacia Biotech, Little Chalfont, UK). For reprobing of membranes with an alternative antibody, the membranes were treated with 10 mL of stripping buffer (3 mL of 1 M Tris-HCl pH 6.7, 10 mL of 10% SDS, 347 μL of 14 M mercaptoethanol, and 36.5 mL deionized water) at 60° C. for 1 h. The membrane was then placed on a shaking incubator for 30 min to clear it of all bound antibodies. The stripped membrane was then treated with a different primary antibody as previously described.
Experiment 6 was designed to determine the effect of ATA, AQA, and AHA on the expression and release of Factor H and VEGF by BxPC-3 cells.
Experiment 10 was designed to determine the effect of ATA, AQA, and AHA on the expression and release of Factor H and VEGF by A549 cells. The protocol was identical to that used in Experiment 6 except A549 cells were used.

Substance | DNA fragmentation (180 bp laddering) in BxPC-3 cells (BxPC-3 cells) | expression of Factor H in U251 cells (Factor H [1]) | expression of Factor H in A549 cells (Factor H [2]) | expression of vascular endothelial growth factor (VEGF) in A549 cells (VEGF) | release of VEGF into the extracellular milieu by A549 cells (VEGF)
aurin hexacarboxylic acid [AHA] | induced DNA fragmentation | reducing expression | reduced expression | reduced expression | reducing release
aurin quadracarboxylic acid [AQA] | induced DNA fragmentation | reducing expression | reduced expression | reduced expression | reducing release
